Assay type in all cases: functional
The test system of one experiment is HCT-15. Description: Growth inhibition of human HCT15 cells assessed as growth inhibition at 10 uM by sulforhodamine B assay. Conditions: read-out: GI.
Experiment [1] can be described thus: Growth inhibition of human EKVX cells assessed as cell growth at 10 uM by sulforhodamine B assay. The following applies: read-out: Activity.
The next experiment deals with OVCAR-5. Description: Growth inhibition of human OVCAR5 cells assessed as growth inhibition at 10 uM by sulforhodamine B assay. The following applies: read-out: GI. Background: In SRB staining, fixed cells bind dye roughly in proportion to their protein.
The subject of another experiment is SK-MEL-5. Kind of experiment: Growth inhibition of human SK-MEL-5 cells assessed as growth inhibition at 10 uM by sulforhodamine B assay. The following applies: read-out: GI.
The test system of a further experiment is HT-29. Description: Growth inhibition of human HT-29 cells assessed as cell growth at 10 uM by sulforhodamine B assay. Conditions: read-out: Activity.
For experiment [2], the system named is SNB-19. Description: Growth inhibition of human SNB19 cells assessed as cell growth at 10 uM by sulforhodamine B assay. Conditions: read-out: Activity.
Another experiment relates to ACHN. Kind of experiment: Growth inhibition of human ACHN cells assessed as growth inhibition at 10 uM by sulforhodamine B assay. Conditions: read-out: GI.
For another experiment, the system named is 786-0. Kind of experiment: Growth inhibition of human 786-0 cells assessed as cell growth at 10 uM by sulforhodamine B assay. Conditions: read-out: Activity.
A further experiment concerns SK-MEL-2. Description: Growth inhibition of human SK-MEL-2 cells assessed as growth inhibition at 10 uM by sulforhodamine B assay. The following applies: read-out: GI.
A short description of experiment [3]: Growth inhibition of human Hs 578T cells assessed as growth inhibition at 10 uM by sulforhodamine B assay. The following applies: read-out: GI.
A further experiment relates to UO-31. Kind of experiment: Growth inhibition of human UO31 cells assessed as cell growth at 10 uM by sulforhodamine B assay. Conditions: read-out: Activity.
The next experiment relates to T47D. Kind of experiment: Growth inhibition of human T47D cells assessed as growth inhibition at 10 uM by sulforhodamine B assay. Conditions: read-out: GI.
A short description of experiment [4]: Growth inhibition of human NCI-ADR-RES cells assessed as growth inhibition at 10 uM by sulforhodamine B assay. Conditions: read-out: GI.
In another experiment the test system is COLO 205. Kind of experiment: Growth inhibition of human COLO205 cells assessed as cell growth at 10 uM by sulforhodamine B assay. The following applies: read-out: Activity.
The subject of a further experiment is TK-10. Kind of experiment: Growth inhibition of human TK10 cells assessed as cell growth at 10 uM by sulforhodamine B assay. Conditions: read-out: Activity.
The subject of another experiment is OVCAR-8. Kind of experiment: Growth inhibition of human OVCAR8 cells assessed as growth inhibition at 10 uM by sulforhodamine B assay. The following applies: read-out: GI.
The next experiment deals with SW-620. Kind of experiment: Growth inhibition of human SW620 cells assessed as cell growth at 10 uM by sulforhodamine B assay. The following applies: read-out: Activity.
Another experiment concerns A498. Description: Growth inhibition of human A498 cells assessed as cell growth at 10 uM by sulforhodamine B assay. Conditions: read-out: Activity.
The subject of another experiment is K562. Kind of experiment: Growth inhibition of human K562 cells assessed as cell growth at 10 uM by sulforhodamine B assay. The following applies: read-out: Activity.
Experiment [5] has as its system SNB-19. Description: Growth inhibition of human SNB19 cells assessed as growth inhibition at 10 uM by sulforhodamine B assay. The following applies: read-out: GI.
The subject of the next experiment is SK-OV-3. Kind of experiment: Growth inhibition of human SKOV3 cells assessed as cell growth at 10 uM by sulforhodamine B assay. Conditions: read-out: Activity.
A further experiment deals with DU-145. Description: Growth inhibition of human DU145 cells assessed as cell growth at 10 uM by sulforhodamine B assay. Conditions: read-out: Activity.
For another experiment, the system named is KM12. Kind of experiment: Growth inhibition of human KM12 cells assessed as growth inhibition at 10 uM by sulforhodamine B assay. Conditions: read-out: GI.

Turning to `COc1cc(/C=C2\C[C@]3(C)[C@H]4CC=C5[C@@H]6CC(C)(C)C[C@@H](O)[C@]6(C(=O)O)CC[C@@]5(C)[C@]4(C)CC[C@H]3C(C)(C)C2=O)ccc1O`, the inhibition of growth at 10 µM with HCT-15 is 23.5%; in the experiment with OVCAR-5 it was under 10%; with SK-MEL-5 it was 11.9%; in the experiment with ACHN, 14.4%; in the experiment with SK-MEL-2, under 10%; in experiment [3], under 10%. The inhibition of growth at 10 µM is 18.9% with T47D; under 10% in experiment [4]; 20.2% in the experiment on OVCAR-8; under 10% in the experiment on SNB-19 [5]; 16% with KM12. In addition, the growth at 10 µM in experiment [1] was determined as 88.5%; in the experiment with HT-29, 85.5%; in the experiment with SNB-19 [2], 97%; with 786-0, 102%; with UO-31 it was 75.5%; in the experiment with COLO 205, 94.8%. In addition, the growth at 10 µM with TK-10 was determined as 116%; in the experiment on SW-620, 108%; with A498, 115%; with K562 it was 71.2%; with SK-OV-3, 99.2%; with DU-145, 107%.
With `CC1(C)C[C@@H](O)[C@]2(C(=O)O)CC[C@]3(C)C(=CC[C@@H]4[C@@]5(C)CC[C@H](O)C(C)(C)[C@@H]5CC[C@]43C)[C@@H]2C1`, the inhibition of growth at 10 µM (with HCT-15; in the experiment with OVCAR-5; in the experiment on SK-MEL-5; in the experiment on ACHN; with SK-MEL-2; in [3]) was under 10% in each case. For the same molecule, the inhibition of growth at 10 µM (in the experiment on T47D; in experiment [4]; in the experiment on OVCAR-8; in the experiment with SNB-19 [5]; in the experiment with KM12) was under 10% each time. In addition, the growth at 10 µM was found to be 104% in [1]; 109% with HT-29; 98.2% in the experiment with SNB-19 [2]; 90.7% in the experiment with 786-0; 85.5% in the experiment with UO-31; 109% in the experiment on COLO 205. Also, the growth at 10 µM in the experiment with TK-10 stood at 99.7%; with SW-620, 109%; in the experiment with A498, 102%; in the experiment on K562 it was 94%; in the experiment with SK-OV-3, 101%; in the experiment on DU-145 it was 103%.

(Values after ChEMBL document CHEMBL2413072, “Synthesis and in vitro anticancer studies of novel C-2 arylidene congeners of lantadenes” (2013).)
